# US20040014215A1, “Synchronised arabidopsis cell suspensions and uses thereof” (priority 2000, published 2004)
# Experiments:
# [1] = system: Arabidopsis cell suspension culture MM1; assay: Aphidicolin (4.16 μg/ml, 21.5 hrs) block/release of MM1: proportion of G1, S and G2 cells by flow cytometry; assay type: cell-based, Arabidopsis thaliana
# Method: Arabidopsis cell suspension culture MM1 (DSM 13563) was used for synchronisation experiments. The suspension culture was maintained by sub-culturing weekly 10 ml into 200 ml of fresh MSS-medium (MS-salt, 3% sucrose, 0.5 mg/l NAA, 0.05 mg/l kinetin) which is cultured in 500 ml narrow neck Erlenmeyer flasks, of which the opening is covered with double layer of aluminium foil and loosely covered with Saran wrap and which are placed on a GYROTORY® Shaker (New Brunswick Scientific). The cell suspension culture was grown under continuous light conditions (24 hrs a day); Philips lamps were used with the specification TLD HF 50W/840; light level is in average 1300 Lux and the cell suspension culture is rotated at 120 rpm at a temperature varying between 23-25° C. To arrest cells reversibly in late G1/early S-phase, cells were blocked with aphidicolin according to Nagata et al. 1992 (with slight modifications), 40 ml of an early stationary phase cell suspension culture was subcultured into 200 ml MSS-medium, 4.16 μg/ml aphidicolin was added to block cells at the end of G1/early S-phase, and the culture was incubated at 23° C., 120 rpm in the conditions as described above for MM1, for a period of 21.5 hrs. To remove aphidicolin, cells were washed through a nylon mesh (mesh size 47 μm) with 11 MSS-medium by vigorously shaking and resuspended in MSS-medium. The cells were vigorously shaken, for a washing time of about 14 min, and then centrifuged at 150Orpm for 1 min (387 rcf) with the brake switched off.
# The level of synchronicity of the Arabidopsis cell suspension culture MM1 was analysed by flow cytometry. The cell pellet from 5 ml of cell suspension culture was frozen in liquid nitrogen. To analyse the DNA content, the High Resolution Kit for Plant ploidy analysis (Type P) (Partec, Cat. No. 06-5-4004) was used, containing solution A (to release cell nuclei) and solution B (to stain DNA with DAPI). A sample of the frozen cell pellet was transferred into a small petri-dish (5 cm diameter), 150 μl of solution A was added, and the sample was carefully chopped with vertical motion of a sharp razor blade. An additional 150 μl of solution A was added, the cell suspension pipetted up and down for several time before leaving for approximately 2 min at RT. The released cell nuclei were filtered through a 50 μm nylon mesh (Partec, CellTrics 50 μm, Cat. No. 06-4-2317) and 1 ml of solution B was added to the filtrate. On average 8200 particles were counted with a flow cytometer (PASIII; Partec GmbH, Germany), using HBO lamp excitation (Partec, mercury lamp HBO 100 long life, 100W) and detection of emission using a blue filter. Cell cycle phases were analysed using Multicycle for Windows (Phoenix Flow Systems, San Diego, Calif.). Flow cytometry results are not corrected for the mitotic cells (which are not measured by this method).
# tobacco BY-2 cell line = conditions: BY-2, aphidicolin block; cited from earlier work
# [2] = system: Arabidopsis cell suspension culture; conditions: phosphate starvation 32 hours then aphidicolin, cited from earlier work
compound,measurement,setting,value
C[C@@]1(CO)[C@H](O)CC[C@@]2(C)[C@H]1CC[C@H]1C[C@@H]3C[C@@]12CC[C@]3(O)CO [aphidicolin],G1 (%) MM1,[1]; 0 h after aphidicolin removal,50.6%
same,G2 (%) MM1,[1]; 0 h after aphidicolin removal,19.3%
same,S (%) MM1,[1]; 0 h after aphidicolin removal,30.1%
same,G1 (%) MM1,[1]; 1 h after aphidicolin removal,23.7%
same,G2 (%) MM1,[1]; 1 h after aphidicolin removal,11.4%
same,S (%) MM1,[1]; 1 h after aphidicolin removal,64.9%
same,G1 (%) MM1,[1]; 2 h after aphidicolin removal,23.8%
same,G2 (%) MM1,[1]; 2 h after aphidicolin removal,11.4%
same,S (%) MM1,[1]; 2 h after aphidicolin removal,64.8%
same,G1 (%) MM1,[1]; 3 h after aphidicolin removal,27.2%
same,G2 (%) MM1,[1]; 3 h after aphidicolin removal,10.4%
same,S (%) MM1,[1]; 3 h after aphidicolin removal,62.5%
same,G1 (%) MM1,[1]; 4 h after aphidicolin removal,23.2%
same,G2 (%) MM1,[1]; 4 h after aphidicolin removal,44.8%
same,S (%) MM1,[1]; 4 h after aphidicolin removal,32%
same,G1 (%) MM1,[1]; 5 h after aphidicolin removal,19.9%
same,G2 (%) MM1,[1]; 5 h after aphidicolin removal,63.8%
same,S (%) MM1,[1]; 5 h after aphidicolin removal,16.3%
same,G1 (%) MM1,[1]; 6 h after aphidicolin removal,16.1%
same,G2 (%) MM1,[1]; 6 h after aphidicolin removal,83.9%
same,S (%) MM1,[1]; 6 h after aphidicolin removal,0%
same,G1 (%) MM1,[1]; 7 h after aphidicolin removal,13.8%
same,G2 (%) MM1,[1]; 7 h after aphidicolin removal,85.7%
same,S (%) MM1,[1]; 7 h after aphidicolin removal,0.5%
same,G1 (%) MM1,[1]; 8 h after aphidicolin removal,10.9%
same,G2 (%) MM1,[1]; 8 h after aphidicolin removal,88.8%
same,S (%) MM1,[1]; 8 h after aphidicolin removal,0.3%
same,G1 (%) MM1,[1]; 9 h after aphidicolin removal,11.1%
same,G2 (%) MM1,[1]; 9 h after aphidicolin removal,88.9%
same,S (%) MM1,[1]; 9 h after aphidicolin removal,0%
same,G1 (%) MM1,[1]; 10 h after aphidicolin removal,10.8%
same,G2 (%) MM1,[1]; 10 h after aphidicolin removal,89.2%
same,S (%) MM1,[1]; 10 h after aphidicolin removal,0%
same,G1 (%) MM1,[1]; 11 h after aphidicolin removal,13.4%
same,G2 (%) MM1,[1]; 11 h after aphidicolin removal,86.6%
same,S (%) MM1,[1]; 11 h after aphidicolin removal,0%
same,G1 (%) MM1,[1]; 12 h after aphidicolin removal,15.1%
same,G2 (%) MM1,[1]; 12 h after aphidicolin removal,84.1%
same,S (%) MM1,[1]; 12 h after aphidicolin removal,0.8%
same,G1 (%) MM1,[1]; 13 h after aphidicolin removal,22.9%
same,G2 (%) MM1,[1]; 13 h after aphidicolin removal,77.1%
same,S (%) MM1,[1]; 13 h after aphidicolin removal,0%
same,G1 (%) MM1,[1]; 14 h after aphidicolin removal,31.5%
same,G2 (%) MM1,[1]; 14 h after aphidicolin removal,68.5%
same,S (%) MM1,[1]; 14 h after aphidicolin removal,0%
same,G1 (%) MM1,[1]; 15 h after aphidicolin removal,38.6%
same,G2 (%) MM1,[1]; 15 h after aphidicolin removal,61.3%
same,S (%) MM1,[1]; 15 h after aphidicolin removal,0.2%
same,G1 (%) MM1,[1]; 16 h after aphidicolin removal,33.4%
same,G2 (%) MM1,[1]; 16 h after aphidicolin removal,59.6%
same,S (%) MM1,[1]; 16 h after aphidicolin removal,6.9%
same,G1 (%) MM1,[1]; 17 h after aphidicolin removal,36.3%
same,G2 (%) MM1,[1]; 17 h after aphidicolin removal,57.5%
same,S (%) MM1,[1]; 17 h after aphidicolin removal,6.2%
same,G1 (%) MM1,[1]; 18 h after aphidicolin removal,35.7%
same,G2 (%) MM1,[1]; 18 h after aphidicolin removal,56.1%
same,S (%) MM1,[1]; 18 h after aphidicolin removal,8.2%
same,G1 (%) MM1,[1]; 19 h after aphidicolin removal,38.4%
same,G2 (%) MM1,[1]; 19 h after aphidicolin removal,55.6%
same,S (%) MM1,[1]; 19 h after aphidicolin removal,6%
same,G1 (%) MM1,[1]; 20 h after aphidicolin removal,41.1%
same,G2 (%) MM1,[1]; 20 h after aphidicolin removal,48.8%
same,S (%) MM1,[1]; 20 h after aphidicolin removal,10%
same,mitotic index,tobacco BY-2 cell line,45-50%
same,cells in S-phase,[2]; 2 h after release of block,50 to 60%
same,cells in G2 phase,[2]; after 8 h,50%
